Measurements: PubChem BioAssay (NCI)
Several values for one entry are separate records, joined by “and”; a condition that tells them apart may be missing. Equal values may be shown once.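 Compound exposure: 48 hours, 5 concentrations, 96-well plates. Abbreviation: GI50, concentration required for 50% inhibition of growth. At the TGI there is no net growth.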

Experiments:
Experiment in all cases: NCI anticancer screen, dose series, 48 h
DLD-1 colon = tested on: DLD-1 colon
MOLT-4 leukemia = tested on: MOLT-4 leukemia
DMS 273 small cell lung = tested on: DMS 273 small cell lung
MALME-3M melanoma = tested on: MALME-3M melanoma
HOP-62 NSCLC = tested on: HOP-62 NSCLC
TK-10 renal = tested on: TK-10 renal
NCI-H460 lung = tested on: NCI-H460 lung
IGROV1 ovarian = tested on: IGROV1 ovarian
SNB-19 CNS = tested on: SNB-19 CNS
EKVX NSCLC = tested on: EKVX NSCLC
UO-31 renal = tested on: UO-31 renal
786-0 renal = tested on: 786-0 renal
SNB-75 CNS = tested on: SNB-75 CNS
U251 CNS = tested on: U251 CNS
LOX IMVI melanoma = tested on: LOX IMVI melanoma
PC-3 prostate = tested on: PC-3 prostate
OVCAR-8 ovarian = tested on: OVCAR-8 ovarian
HCT-15 colon = tested on: HCT-15 colon
KM12 colon = tested on: KM12 colon
HOP-92 NSCLC = tested on: HOP-92 NSCLC
A498 renal = tested on: A498 renal
HOP-18 NSCLC = tested on: HOP-18 NSCLC
NCI/ADR-RES ovarian = tested on: NCI/ADR-RES ovarian
OVCAR-5 ovarian = tested on: OVCAR-5 ovarian
CAKI-1 renal = tested on: CAKI-1 renal
RXF 393 renal = tested on: RXF 393 renal
BT-549 breast = tested on: BT-549 breast
OVCAR-3 ovarian = tested on: OVCAR-3 ovarian
NCI-H522 lung = tested on: NCI-H522 lung
SF-295 CNS = tested on: SF-295 CNS
SK-MEL-28 melanoma = tested on: SK-MEL-28 melanoma

SMILES: CCC(=O)OC1CCn2c1nc1c2C(=O)C(C)=C(N2CC2)C1=O (stereo unspecified)
- TGI (DLD-1 colon): 1580 nM
- GI50 (MOLT-4 leukemia): 1460 nM
- TGI (MOLT-4 leukemia): > 83600 nM
- TGI (DMS 273 small cell lung): 121 nM
- GI50 (MALME-3M melanoma): 30.7 nM
- TGI (MALME-3M melanoma): 96.1 nM and 114 nM
- GI50 (HOP-62 NSCLC): 18.9 nM
- TGI (HOP-62 NSCLC): 43.1 nM and 143 nM
- GI50 (TK-10 renal): 496 nM
- GI50 (NCI-H460 lung): 14.1 nM
- TGI (NCI-H460 lung): 45.2 nM and 124 nM
- GI50 (IGROV1 ovarian): 57.3 nM
- TGI (IGROV1 ovarian): 237 nM and 1250 nM
- GI50 (SNB-19 CNS): 44.1 nM
- TGI (SNB-19 CNS): 1160 nM and 697 nM
- GI50 (EKVX NSCLC): 305 nM
- TGI (EKVX NSCLC): 1040 nM and 504 nM
- TGI (UO-31 renal): 136 nM
- GI50 (786-0 renal): 17 nM
- GI50 (SNB-75 CNS): 22.3 nM
- TGI (SNB-75 CNS): 95.7 nM and 54.4 nM
- GI50 (U251 CNS): 73.3 nM
- TGI (U251 CNS): 484 nM and 576 nM
- GI50 (LOX IMVI melanoma): 31.1 nM
- TGI (LOX IMVI melanoma): 88.6 nM and 243 nM
- TGI (PC-3 prostate): 306 nM
- GI50 (OVCAR-8 ovarian): 32.7 nM
- TGI (OVCAR-8 ovarian): 338 nM and 211 nM
- GI50 (HCT-15 colon): 20.4 nM
- TGI (HCT-15 colon): 209 nM and 52.7 nM
- GI50 (KM12 colon): 24.2 nM
- TGI (KM12 colon): 159 nM and 363 nM
- GI50 (HOP-92 NSCLC): 2610 nM
- TGI (HOP-92 NSCLC): 7990 nM and 6330 nM
- TGI (A498 renal): 106 nM
- TGI (HOP-18 NSCLC): 228 nM
- TGI (NCI/ADR-RES ovarian): 400 nM
- GI50 (OVCAR-5 ovarian): 74.3 nM
- TGI (OVCAR-5 ovarian): 589 nM and 229 nM
- GI50 (CAKI-1 renal): 233 nM
- TGI (CAKI-1 renal): 1010 nM and 511 nM
- GI50 (RXF 393 renal): 10.7 nM
- TGI (RXF 393 renal): 26 nM and 111 nM
- TGI (BT-549 breast): 192 nM
- GI50 (OVCAR-3 ovarian): 29.6 nM
- TGI (OVCAR-3 ovarian): 97.5 nM and 137 nM
- GI50 (NCI-H522 lung): 15.9 nM
- TGI (NCI-H522 lung): 40.4 nM and 89.9 nM
- GI50 (SF-295 CNS): 31.5 nM
- TGI (SF-295 CNS): 1080 nM and 151 nM
- GI50 (SK-MEL-28 melanoma): 36.8 nM
